The source made the active and inactive calls. The calls are words filed in the database; no cut-off is given here. Starred links: 1 amine or outer side, 2 acyl side, 3 side chain; linkers in the order of their positions; H or OH if unused. Positions of bridges follow the written chain, without caps; N, C: chain ends. Non-standard residues stand in square brackets, D forms with d. Residues, ends and D or L forms follow the SMILES beside them. Groups on a side chain read outwards from the residue. Chains are numbered I, II in the order given. ξ: configuration not given here. *: point of attachment. X3 = Cc1ccc(C)c(OCCCC(C)(C)C(=O)OCC(=O)NCCCCCC(=O)N[C@@H](CCC(=O)NCCCC[C@H](NO[*:1])C(=O)[*:2])C(=O)O)c1; X1 = Cc1ccc(C)c(OCCCC(C)(C)C(=O)OCC(=O)NCCCCCCCCCC(NC(=O)COC(=O)C(C)(C)CCCOc2cc(C)ccc2C)C(=O)*)c1; Glycoloyl(O-gemfibrozoyl) = Cc1ccc(C)c(OCCCC(C)(C)C(=O)OCC(=O)*)c1; γGlu = O=C(O)[C@H](CCC(=O)[*:2])N[*:1]; Thr(3ξ) = CC(O)[C@H](N)C(=O)O; Aun = NCCCCCCCCCCC(=O)O; ξK = NCCCCC(N)C(=O)O; Ahx = NCCCCCC(=O)O
What was measured:
[1] = molecular target: Glucagon-like peptide 1 receptor (Homo sapiens, UniProt P43220); experiment: Agonist activity at human GLP-1R expressed in HEK293 cells assessed as stimulation of cAMP accumulation incubated for 60 mins by HTRF assay; assay type: functional, cell-based
Sequence of Glucagon-like peptide 1 receptor (P43220 whole entry): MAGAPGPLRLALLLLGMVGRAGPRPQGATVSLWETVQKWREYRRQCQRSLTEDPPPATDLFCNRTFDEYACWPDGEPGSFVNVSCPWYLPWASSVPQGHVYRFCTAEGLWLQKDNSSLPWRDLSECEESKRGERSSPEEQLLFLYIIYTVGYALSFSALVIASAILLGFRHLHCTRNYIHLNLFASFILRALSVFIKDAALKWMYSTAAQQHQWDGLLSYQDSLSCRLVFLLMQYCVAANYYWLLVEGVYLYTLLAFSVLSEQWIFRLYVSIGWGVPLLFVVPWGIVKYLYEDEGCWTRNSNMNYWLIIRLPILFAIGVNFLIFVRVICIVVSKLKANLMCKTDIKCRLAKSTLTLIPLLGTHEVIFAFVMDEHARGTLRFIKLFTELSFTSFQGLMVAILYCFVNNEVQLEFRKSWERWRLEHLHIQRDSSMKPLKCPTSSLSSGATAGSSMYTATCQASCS

[2] = tested on: Mus musculus; experiment: Hypoglycemic activity in 12 hrs fasted ICR mouse assessed as reduction in blood glucose level at 25 nmol/kg, ip dosed 30 mins before glucose challenge measured up to 120 mins by OGTT method; assay type: functional, organism-based; details: time 150.0 min
[3] = Stability in Sprague-Dawley rat plasma assessed as half life at 1000 ng/ml measured up to 48 hrs under shaking condition by LC-MS/MS analysis; assay type: ADME, cell-free
[4] = molecular target: Albumin (Homo sapiens, UniProt P02768); experiment: Binding affinity to human serum albumin assessed as retention factor by HPAC method; assay type: ADME
Sequence of Albumin (P02768 whole entry): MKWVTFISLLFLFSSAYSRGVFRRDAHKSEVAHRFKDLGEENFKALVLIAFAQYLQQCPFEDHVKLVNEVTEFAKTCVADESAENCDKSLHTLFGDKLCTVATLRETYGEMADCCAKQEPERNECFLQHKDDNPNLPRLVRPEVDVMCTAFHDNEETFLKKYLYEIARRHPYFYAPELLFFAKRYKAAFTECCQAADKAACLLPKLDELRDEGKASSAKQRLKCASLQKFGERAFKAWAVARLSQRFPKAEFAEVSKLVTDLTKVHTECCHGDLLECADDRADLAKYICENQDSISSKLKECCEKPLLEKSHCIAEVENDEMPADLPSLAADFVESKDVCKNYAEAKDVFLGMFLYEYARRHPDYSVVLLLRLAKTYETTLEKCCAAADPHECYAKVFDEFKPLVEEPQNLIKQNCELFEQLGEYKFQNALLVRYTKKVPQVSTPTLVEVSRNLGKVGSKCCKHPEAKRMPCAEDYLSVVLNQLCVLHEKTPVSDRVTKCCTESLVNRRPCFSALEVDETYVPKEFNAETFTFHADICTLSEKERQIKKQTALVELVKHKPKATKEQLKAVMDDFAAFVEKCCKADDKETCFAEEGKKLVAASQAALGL

[5] = Stability in Sprague-Dawley rat plasma at 1000 ng/ml measured up to 48 hrs under shaking condition by LC-MS/MS analysis; assay type: ADME, cell-free

Molecule	EC50 [1] [nM]	half-life at 1000 ng/ml [3] [min]	K [4]	Stabilty [5]	Activity [2]
CC[C@H](C)[C@H](NC(=O)[C@H](CC(C)C)NC(=O)[C@H](Cc1c[nH]c2ccccc12)NC(=O)[C@H](CCC(=O)O)NC(=O)[C@@H](NC(=O)[C@H](Cc1ccccc1)NC(=O)[C@H](CCC(=O)O)NC(=O)[C@H](CCCCNC(=O)CC[C@H](NC(=O)CCCCCNC(=O)COC(=O)C(C)(C)CCCOc1cc(C)ccc1C)C(=O)O)NC(=O)[C@H](C)NC(=O)[C@H](C)NC(=O)[C@H](CCC(=O)O)NC(=O)[C@H](CCC(=O)O)NC(=O)[C@H](CCC(=O)O)NC(=O)[C@H](CC(C)C)NC(=O)[C@H](Cc1ccc(O)cc1)NC(=O)[C@H](CCC(=O)O)NC(=O)[C@@H](NC(=O)[C@@H](NC(=O)[C@H](CC(=O)O)NC(=O)[C@H](CC(N)=O)NC(=O)[C@@H](NC(=O)[C@H](Cc1ccc(O)cc1)NC(=O)[C@@H](NC(=O)CNC(=O)[C@H](CCC(=O)O)NC(=O)CNC(=O)[C@@H](N)Cc1cnc[nH]1)[C@@H](C)O)[C@@H](C)O)C(C)C)C(C)O)[C@@H](C)CC)C(=O)N[C@@H](CCCCN)C(=O)NCC(=O)N[C@@H](CCCCN)C(=O)N1CCC[C@H]1C(=O)N[C@@H](CO)C(=O)N[C@@H](CO)C(=O)NCC(=O)N[C@@H](C)C(=O)N1CCC[C@H]1C(=O)N1CCC[C@H]1C(=O)N1CCC[C@H]1C(=O)N[C@@H](CO)C(=O)O (stereo partly drawn) (H-HGEGTYTNDV[Thr(3ξ)]EYLEEEAAK([γGlu-Ahx-Glycoloyl(O-gemfibrozoyl)])EFIEWLIKGKPSSGAPPPS-OH)	0.083	1030	6.8	–	Active
H-HGEGTYTNDVTEYLEEEAAK([γGlu-Aun-Glycoloyl(O-gemfibrozoyl)])EFIEWLIKGKPSSGAPPSKKKKKK-OH	0.11	1210	7.3	–	Active
H-HGEGTYTNDVTEYLEEEAAK([γGlu-X1])EFIEWLIKGKPSSGAPPSKKKKKK-OH	0.31	2030	12.1	–	inactive

Second part, led by results:

EC50 [1] [nM]	half-life at 1000 ng/ml [3] [min]	K [4]	Stabilty [5]	Molecule	Activity [2]
0.093	852	–	Stable	CC[C@H](C)[C@H](NC(=O)[C@H](CC(C)C)NC(=O)[C@H](Cc1c[nH]c2ccccc12)NC(=O)[C@H](CCC(=O)O)NC(=O)[C@@H](NC(=O)[C@H](Cc1ccccc1)NC(=O)[C@H](CCC(=O)O)NC(=O)[C@H](CCCCNC(=O)CC[C@H](NC(=O)CCCCCNC(=O)COC(=O)C(C)(C)CCCOc1cc(C)ccc1C)C(=O)O)NOC(=O)[C@H](C)NC(=O)[C@H](C)NC(=O)[C@H](CCC(=O)O)NC(=O)[C@H](CCC(=O)O)NC(=O)[C@H](CCC(=O)O)NC(=O)[C@H](CC(C)C)NC(=O)[C@H](Cc1ccc(O)cc1)NC(=O)[C@H](CCC(=O)O)NC(=O)[C@@H](NC(=O)[C@@H](NC(=O)[C@H](CC(=O)O)NC(=O)[C@H](CC(N)=O)NC(=O)[C@@H](NC(=O)[C@H](Cc1ccc(O)cc1)NC(=O)[C@@H](NC(=O)CNC(=O)[C@H](CCC(=O)O)NC(=O)CNC(=O)[C@@H](N)Cc1cnc[nH]1)[C@@H](C)O)[C@@H](C)O)C(C)C)[C@@H](C)O)[C@@H](C)CC)C(=O)N[C@@H](CCCCN)C(=O)NCC(=O)N[C@@H](CCCCN)C(=O)O (I: H-HGEGTYTNDVTEYLEEEAA / II: EFIEWLIKGK-OH; linker I:C-II:N via X3)	Active
0.053	978	6.4	–	H-HGEGTYTNDVTEYLEEEAA[ξK]([γGlu-Ahx-Glycoloyl(O-gemfibrozoyl)])EFIEWLIKGKPSSGAPPSKKKKKK-OH	Active

Source: ChEMBL document CHEMBL4765314, “Rational design and biological evaluation of gemfibrozil modified Xenopus GLP-1 derivatives as long-acting hypoglycemic agents” (Eur J Med Chem, 2020)
